{
  "source": "patent US20090197279A1",
  "about": "“MICROTUBULE SYNTHESIS AS A BIOMARKER” (KINEMED, INC., priority 2005, published 2009)",
  "tested_on": "C57BL/6JBomTac mice",
  "experiment": "Contextual fear conditioning (CFC), freezing behavior",
  "assay_type": "in vivo, mouse",
  "from_the_text": "FIG. 10 depicts microtubule/tubulin exchange during hippocampus-dependent contextual memory. (A) Protocol for measurement of microtubule/tubulin exchange during contextual fear conditioning (CFC). Tubulin dimers and microtubules subsets were labeled to plateau through continuous ^2H2O labeling, starting one day before CFC training. Labeling was continued throughout CFC training (Day 2) and the contextual conditioning test until mice were euthanized (Day 3). Vehicle or nocodazole treated-mice were injected 4 hours before CFC training, consisting of three pairings of conditioned and unconditioned stimuli inside an observation chamber, as described in Example 7 below. […] Microtubule subpopulations were fractionated as described below, and the percentage of newly synthesized tubulin was quantified by GC/MS (mean±SD, n=3). […]\nFear conditioning experiments were done as previously described (Bourtchouladze, R. et al. Different training procedures recruit either one or two critical periods for contextual memory consolidation, each of which requires protein synthesis and PKA. Learn. Mem. 5, 365-374 (1998)). […] On day later, contextual conditioning was assessed for 3 consecutive minutes in the chamber in which the mice were trained (CFC test). […]",
  "note": "“Also recorded” adds a separate entry of the source.",
  "data": [
    {"smiles": "COC(=O)Nc1nc2ccc(C(=O)c3cccs3)cc2[nH]1", "note": "[nocodazole]", "values": [
      {"measurement": "freezing behavior (% of freezing to context), CFC test", "setting": "nocodazole 0.2 mg/kg i.p. 4 hours before CFC training, test one day after training, vs vehicle-treated mice", "value": "significant reduction; also recorded: significantly lower"},
      {"measurement": "contextual fear responses measured immediately after training", "setting": "nocodazole vs vehicle, data not shown", "value": "similar"}
    ]}
  ]
}
